Laboratory results: US7825279B2, “Fused ring dicationic anti-protozoan agents and their prodrugs” (The University of North Carolina at Chapel Hill, priority 2003, dated 2010)
Read-outs that look alike come from different tables or passages of the source.

Legend:
Plasmodium falciparum = experiment: in vitro IC50 versus Plasmodium falciparum (P.f.); format: cell-based
[1] = system: virulent STIP90° strain of T.b.r.; experiment: in vivo T.b.r. mouse model; details: for In vivo T.b.r. Cures: cures/animals
[2] = system: Trypanosoma brucei rhodesiense; experiment: in vitro IC50 versus Trypanosoma brucei rhodesiense (T.b.r.); format: cell-based
poly dA-dT = experiment: DNA ΔTm poly dA-dT; format: binding; parameters: unit not given here
[3] = Plasmodium falciparum, in vitro, read-out: P.f. IC50
[4] = Trypanosoma brucei, RHODESIENSE

Structure (SMILES)	IC50 (Plasmodium falciparum; [3])	In vivo T.b.r. survival days [1]	In vivo T.b.r. Cures [1]	IC50 [2, 4]	DNA ΔTm poly dA-dT (poly dA-dT)	IC50 (Plasmodium falciparum; in vitro, read-out: P.f. IC50)	IC50 [2]	IC50 (Plasmodium falciparum; Plasmodium falciparum, in vitro, read-out: IC-50 versus Plasmodium falciparum (p.f.))	IC50 (Plasmodium falciparum; Plasmodium falciparum, read-out: P.f. IC50)	IC50 ([2]; Dihydrochloride)
Cl.Cl.N=C(N)Nc1ccc2c(c1)C(=O)c1cc(NC(=N)N)ccc1C2=O [Compound 5c, 2,7-Bis-guanidinoanthraquinone Dihydrochloride]	23.5 nM	27 days	0/4	128 nM	7.2					
CCOC(=O)NC(=NC)Nc1ccc2c(c1)Cc1cc(NC(=NC)NC(=O)OCC)ccc1-2 [Compound 7c, 2,7-Bis(N″-ethoxycarbonyl-N′-methyl)guanidino-9H-fluorene]						1000 nM	2900 nM			
Cl.Cl.Cl.N=C(N)Nc1ccc2cc3ccc(NC(=N)N)cc3nc2c1 [Compound 5d, 3,6-bis-guanidinoacridine Trihydrochloride]	227 nM	16.25 days	0/4	67 nM	7.7					
CCOC(=O)NC(=NC(C)C)Nc1ccc2c(c1)Cc1cc(NC(=NC(C)C)NC(=O)OCC)ccc1-2 [Compound 7d, 2,7-Bis(N″-ethoxycarbonyl-N′-iso-propyl)guanidino-9H-fluorene]		17.75 days	0/4		−0.5	6300 nM	2500 nM			
CCOC(=O)NC(=N)Nc1ccc2c(c1)Cc1cc(NC(=N)NC(=O)OCC)ccc1-2 [Compound 7a, 2,7-Bis(N″-ethoxycarbonyl)guanidino-9H-fluorene]		18.75 days	0/4		0.3	2100 nM	1400 nM			
Cl.Cl.N=C(N)Nc1ccc2c(c1)Cc1cc(NC(=N)N)ccc1-2 [Compound 5a, 2,7-Bis-guanidino-9H-fluorene Dihydrochloride]	2.3 nM	6 days	0/4	24 nM	13.6			≤ 10 nM		
c1ccc(N=Nc2ccc3c(c2)Cc2cc(N=Nc4ccccc4)ccc2-3)cc1 [Compound 9a, 2,7-Bis[(phenylimino)amino]-9H-fluorene]		7 days	0/4	292 nM	22				481 nM	
Cl.Cl.N=C(N)Nc1ccc2c(c1)C(=O)c1cc(NC(=N)N)ccc1-2 [Compound 5b, 2,7-Bis-guanidinofluoren-9-one Dihydrochloride]	268 nM	50.75 days	2/4	≤ 13 nM	6.1					7.3 nM
CNC(=N)Nc1ccc2c(c1)Cc1cc(NC(=N)NC)ccc1-2 [Compound 8a, 2,7-Bis(N′-methyl)guanidino-9H-fluorene]		52 days	3/4		10.1	10 nM	13 nM			
c1ccc(N=Nc2ccc3c(c2)Cc2cc(N=Nc4ccccn4)ccc2-3)nc1 [Compound 9b, 2,7-Bis[(2-pyridylimino)amino]-9H-fluorene]	1200 nM			894 nM	15.2					
CCOC(=O)NC(=N)Nc1ccc2c(c1)C(=O)c1cc(NC(=N)NC(=O)OCC)ccc1-2 [Compound 7b, 2,7-Bis(N″-ethoxycarbonyl)guanidinofluoren-9-one]		6 days	0/4		−0.3	3200 nM	1200 nM			
CC(C)NC(=N)Nc1ccc2c(c1)Cc1cc(NC(=N)NC(C)C)ccc1-2 [Compound 8b, 2,7-Bis(N-iso-propyl)guanidino-9H-fluorene]		60 days	4/4		9.3	35.7 nM	40.4 nM			
